Results published in US20200197409A1, “HEPATITIS B VIRUS SURFACE ANTIGEN INHIBITOR” (FUJIAN COSUNTER PHARMACEUTICAL CO., LTD., priority 2017, published 2020).
pEC50: −log10 of the molar value.

How the values were obtained:
[1] = Microsomal metabolism stability, rat; assay type: in vitro ADME; conditions: rat liver microsomes 0.5 mg/mL, 1 μM, NADPH, 37° C.
Experimental: (§1) The microsomal metabolism stability of the test compound (Embodiment 6) in three species was determined. 1 μM test compound and microsomes (0.5 mg/mL) supplemented with NADPH regeneration system were incubated at 37° C. The positive controls were testosterone (3A4 substrate), propafenone (2D6 substrate) and diclofenac (2C9 substrate), respectively. The positive control and microsomes (0.5 mg/mL) supplemented with NADPH regeneration system were incubated at 37° C. Samples at different time points (0, 5, 10, 20, 30, and 60 minutes) were mixed directly with cold acetonitrile containing an internal standard to terminate the reaction. The compound and microsomes were incubated for 60 minutes without the NADPH regeneration system. One parallel was set at each time point (n=1). The samples were analyzed by LC/MS/MS. The concentration of the compound was indicated by the ratio of the peak area of the analyte to the peak area of the internal standard.

HBV-DNA = assay: HBV DNA content in HepG2.2.15 cells culture supernatant by real time-qPCR; assay type: cell-based; conditions: supernatant on the 8th day
Experimental: 2.1 Cell Line: HepG2.2.15 Cells
3.6 15 μL of the reaction mixture was added into each well of a 96-well PCR plate, followed by addition of 10 μL of sample DNA or HBV DNA standards into each well.
3.7 PCR reaction conditions: heating at 95° C. for 10 minutes, then denaturation at 95° C. for 15 seconds, extension at 60° C. for 1 minute, a total of 40 cycles.

HBV = assay: Anti-HBV activity on the hepatitis B virus mouse model (AAV-HBV); assay type: in vivo, C57BL/6 mice; conditions: for HBsAg content in the plasma of the mice: PO
Experimental: The AAV vector-mediated HBV infected mouse model is a fast and efficient HBV model. Using the high hepatotropism of the AAV vector, the recombinant adeno-associated type 8 virus carrying 1.3 copies of the HBV genome (rAAV8-1.3HBV) is injected into the tail vein of mice, which can efficiently introduce the carried 1.3 copy HBV genome into hepatocytes. Due to the characteristics of the AAV viral vector, the vector mediated by it can express for a long time. The AAV/HBV model can continuously replicate HBV DNA and express HBsAg and HBeAg in the liver of the mice.
The anti-HBV efficacy of the test compound in vivo was evaluated by determining the content of HBsAg in the serum of the mice after treatment with the test compound on AAV/HBV mouse mode.
C57BL/6 mice, 10% HP-f-CD as vehicle, reference compound TDF (Tenofovir), test compound, recombinant virus rAAVS-1.3HBV, main reagents of the experiment including QIAamp96 DNA kit and TaqMan® Universal PCR Master Mix, Hepatitis B Virus Surface Antigen Detection Kit, instruments including: centrifuge (Beckman Allegra X-15R), tissue grinder (QIAGEN-Tissue lyser II) and spectrophotometer (Thermo-NANODROP 1000).
a) All mice were orally administered on the 28th day after the virus injection, and the day was set as day 0. Submaxillary blood of all mice was collected for serum collection before administration. The mice were administered once a day for four weeks.
b) Submaxillary blood of all mice was collected for serum collection twice a week, the volume of the blood collected each time was approximately 100 μL.
c) On the 28th day, all mice were euthanized and the blood was collected from the heart for serum collection.
The content of HBsAg in the serum of the mice was determined by ELISA. The experimental procedure refers to the specification of HBsAg ELISA kit.
a) The anti-HBV activity of the test compound on AAV/HBV mice model was evaluated by determining the content of HBsAg in the plasma of the mice.

[2] = Microsomal metabolism stability, human; assay type: in vitro ADME; conditions: human liver microsomes 0.5 mg/mL, 1 μM, NADPH, 37° C.
Experimental: as §1

[3] = Plasma protein binding rate, human plasma; assay type: in vitro ADME; conditions: plasma of human, dialysis 4 hours at 37° C.
Experimental: The protein binding rate of Embodiment 6 in the plasma of human, CD-1 mouse and SD rat was determined, 796 μL of blank plasma was taken from human, CD-1 mice and SD rats, and 4 μL of test compound working solution (400 μM) or warfarin working solution (400 μM) was added to achieve a final concentration of the test compound and the warfarin in plasma samples of 2 μM. The samples were mixed thoroughly. The final concentration of organic phase DMSO was 0.5%, 50 μL of the test compound and warfarin plasma sample were transferred into sample receiving plates (three parallels), and a relative volume of corresponding blank plasma or buffer was immediately added, ensuring that the final volume of each sample well was 100 μL, and the volume ratio of plasma to dialysis buffer was 1:1. 400 μL of stop solution was added to these samples, which was used as a T0 sample for the determination of recovery and stability. […] The protein binding rate and the recovery rate were calculated by the formulas: % Protein unbinding rate (%)=100*Drug concentration through the dialysis membrane/drug concentration not through the dialysate: Protein binding rate (%)=100-% protein unbinding rate: % Recovery=100*(Drug concentration through the dialysis membrane+Drug concentration not through the dialysate)/Total drug concentration before undialysis. Protein binding rate and recovery rate were calculated.

[4] = Microsomal metabolism stability, mouse; assay type: in vitro ADME; conditions: mouse liver microsomes 0.5 mg/mL, 1 μM, NADPH, 37° C.
Experimental: as §1

With `COCCCOc1cc2c(cc1OC)-c1cc(=O)c(C(=O)O)cn1[C@H](C(C)(C)C)CO2` [Embodiment 6] the “remaining ratio at T=60 min” value [1] was 113.0%, the pEC50 (HBV-DNA) was 8.59 and the “effect on the content of HBsAg on the AAV/HBV mouse model (in words)” value (HBV; 3, 10, 30 mg/kg PO once a day for four weeks) was “significantly reduce”. For the same compound, the “HBsAg content in the plasma of the mice” value (HBV; day 4, 3 mg/kg) was 3.68 IU/mL, the “HBsAg content in the plasma of the mice” value (HBV; day 4, 10 mg/kg) was 3.56 IU/mL and the “HBsAg content in the plasma of the mice” value (HBV; day 4, 30 mg/kg) was 3.38 IU/mL. The “HBsAg content in the plasma of the mice” value (HBV; day 7, 3 mg/kg) was 3.70 IU/mL, the “HBsAg content in the plasma of the mice” value (HBV; day 7, 10 mg/kg) was 3.69 IU/mL and the “HBsAg content in the plasma of the mice” value (HBV; day 7, 30 mg/kg) was 3.44 IU/mL. The “HBsAg content in the plasma of the mice” value (HBV; day 11, 3 mg/kg) was 3.76 IU/mL, the “HBsAg content in the plasma of the mice” value (HBV; day 11, 10 mg/kg) was 3.92 IU/mL and the “HBsAg content in the plasma of the mice” value (HBV; day 11, 30 mg/kg) was 3.64 IU/mL. For the same compound, the “HBsAg content in the plasma of the mice” value (HBV; day 14, 3 mg/kg) was 3.70 IU/mL, the “HBsAg content in the plasma of the mice” value (HBV; day 14, 10 mg/kg) was 3.61 IU/mL and the “HBsAg content in the plasma of the mice” value (HBV; day 14, 30 mg/kg) was 3.40 IU/mL. The “HBsAg content in the plasma of the mice” value (HBV; day 18, 3 mg/kg) was 3.85 IU/mL, the “HBsAg content in the plasma of the mice” value (HBV; day 18, 10 mg/kg) was 3.90 IU/mL and the “HBsAg content in the plasma of the mice” value (HBV; day 18, 30 mg/kg) was 3.55 IU/mL. The “HBsAg content in the plasma of the mice” value (HBV; day 21, 3 mg/kg) was 3.78 IU/mL, the “HBsAg content in the plasma of the mice” value (HBV; day 21, 10 mg/kg) was 3.75 IU/mL and the “HBsAg content in the plasma of the mice” value (HBV; day 21, 30 mg/kg) was 3.46 IU/mL. For the same compound, the “HBsAg content in the plasma of the mice” value (HBV; day 25, 3 mg/kg) was 3.76 IU/mL, the “HBsAg content in the plasma of the mice” value (HBV; day 25, 10 mg/kg) was 3.83 IU/mL and the “HBsAg content in the plasma of the mice” value (HBV; day 25, 30 mg/kg) was 3.37 IU/mL. The “HBsAg content in the plasma of the mice” value (HBV; day 28, 3 mg/kg) was 3.96 IU/mL, the “HBsAg content in the plasma of the mice” value (HBV; day 28, 10 mg/kg) was 3.87 IU/mL and the “HBsAg content in the plasma of the mice” value (HBV; day 28, 30 mg/kg) was 3.53 IU/mL. The “HBsAg content in the plasma of the mice” value (HBV; day −1, 3 mg/kg) was 4.54 IU/mL, the “HBsAg content in the plasma of the mice” value (HBV; day −1, 10 mg/kg) was 4.51 IU/mL and the “HBsAg content in the plasma of the mice” value (HBV; day −1, 30 mg/kg) was 4.48 IU/mL. The “tolerance of the mice during the course of treatment” value (HBV; once a day for four weeks) was “good tolerance”, the “changes of the body weight of the mice” value (HBV; once a day for four weeks, FIG. 3) was “better than RG7834” and the “remaining ratio at T=60 min” value [2] was 109.1%. The fraction unbound at 4 h, 2 μM [3] was 0.443 and the “remaining ratio at T=60 min” value [4] was 102.5%.
